Laboratory results as given in the supplement of paper PMC10307832.

Experiments:
Assay in all cases: relative viability (nuclei count vs DMSO), 5 days (fraction); higher = more cells survive
NCI-H2170 = test system: NCI-H2170
Summary of the method: (§1)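 Lung cancer cell lines, seeded in 1536-well plates, were treated the following day by pin tool with a single drug or with five library-drug doses (not always all listed) in √10 steps on top of a fixed anchor-drug dose. Cells were fixed and nuclei stained in one step after 5 days, and nuclei were counted. Relative viability is the nuclei count for treated wells divided by that for vehicle wells, reported as medians of duplicate plates.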

NCI-H1793 = test system: NCI-H1793
Summary of the method: as §1

HARA = test system: HARA
Summary of the method: as §1

SK-MES-1 = test system: SK-MES-1
Summary of the method: as §1

CAL-12T = test system: CAL-12T
Summary of the method: as §1

NCI-H1915 = test system: NCI-H1915
Summary of the method: as §1

H3255 = test system: H3255
Summary of the method: as §1

NCI-H647 = test system: NCI-H647
Summary of the method: as §1

NCI-H441 = test system: NCI-H441
Summary of the method: as §1

NCI-H661 = test system: NCI-H661
Summary of the method: as §1

BEN = test system: BEN
Summary of the method: as §1

NCI-H650 = test system: NCI-H650
Summary of the method: as §1

NCI-H322M = test system: NCI-H322M
Summary of the method: as §1

LOU-NH91 = test system: LOU-NH91
Summary of the method: as §1

HCC-15 = test system: HCC-15
Summary of the method: as §1

LXF-289 = test system: LXF-289
Summary of the method: as §1

HCC-366 = test system: HCC-366
Summary of the method: as §1

LC-2-ad = test system: LC-2-ad
Summary of the method: as §1

NCI-H2347 = test system: NCI-H2347
Summary of the method: as §1

NCI-H838 = test system: NCI-H838
Summary of the method: as §1

NCI-H2085 = test system: NCI-H2085
Summary of the method: as §1

UMC-11 = test system: UMC-11
Summary of the method: as §1

NCI-H1651 = test system: NCI-H1651
Summary of the method: as §1

NCI-H1395 = test system: NCI-H1395
Summary of the method: as §1

Nc1cccc2c1CN(C1CCC(=O)NC1=O)C2=O (stereo unspecified) [Lenalidomide] + CS(=O)(=O)N1CCN(Cc2cc3nc(-c4cccc5[nH]ncc45)nc(N4CCOCC4)c3s2)CC1 [Pictilisib] (partner 1 µM)
relative viability (NCI-H2170; first compound 0.253 µM): 0.344 | relative viability (NCI-H2170; first compound 0.8 µM): 0.264 | relative viability (NCI-H2170; first compound 2.53 µM): 0.342 | relative viability (NCI-H2170; first compound 8 µM): 0.259 | relative viability (NCI-H1793; first compound 0.253 µM): 0.554 | relative viability (NCI-H1793; first compound 0.8 µM): 0.289 | relative viability (NCI-H1793; first compound 2.53 µM): 0.409 | relative viability (NCI-H1793; first compound 8 µM): 0.228 | relative viability (HARA; first compound 0.253 µM): 0.367 | relative viability (HARA; first compound 0.8 µM): 0.327 | relative viability (HARA; first compound 2.53 µM): 0.438 | relative viability (HARA; first compound 8 µM): 0.206 | relative viability (SK-MES-1; first compound 0.253 µM): 0.373 | relative viability (SK-MES-1; first compound 0.8 µM): 0.482 | relative viability (SK-MES-1; first compound 2.53 µM): 0.403 | relative viability (SK-MES-1; first compound 8 µM): 0.336 | relative viability (CAL-12T; first compound 0.253 µM): 0.406 | relative viability (CAL-12T; first compound 2.53 µM): 0.561 | relative viability (CAL-12T; first compound 8 µM): 0.358 | relative viability (NCI-H1915; first compound 0.253 µM): 0.9 | relative viability (NCI-H1915; first compound 0.8 µM): 0.793 | relative viability (NCI-H1915; first compound 2.53 µM): 1 | relative viability (NCI-H1915; first compound 8 µM): 0.857 | relative viability (H3255; first compound 0.253 µM): 0.459 | relative viability (H3255; first compound 0.8 µM): 0.519 | relative viability (H3255; first compound 2.53 µM): 0.526 | relative viability (H3255; first compound 8 µM): 0.406 | relative viability (NCI-H647; first compound 0.253 µM): 0.417 | relative viability (NCI-H647; first compound 2.53 µM): 0.535 | relative viability (NCI-H647; first compound 8 µM): 0.281 | relative viability (NCI-H441; first compound 0.253 µM): 0.383 | relative viability (NCI-H441; first compound 0.8 µM): 0.453 | relative viability (NCI-H441; first compound 2.53 µM): 0.522 | relative viability (NCI-H441; first compound 8 µM): 0.433 | relative viability (NCI-H661; first compound 0.253 µM): 0.59 | relative viability (NCI-H661; first compound 0.8 µM): 0.369 | relative viability (NCI-H661; first compound 2.53 µM): 0.44 | relative viability (NCI-H661; first compound 8 µM): 0.329 | relative viability (BEN; first compound 0.253 µM): 0.69 | relative viability (BEN; first compound 0.8 µM): 0.504 | relative viability (BEN; first compound 2.53 µM): 0.644 | relative viability (BEN; first compound 8 µM): 0.436 | relative viability (NCI-H650; first compound 0.253 µM): 0.822 | relative viability (NCI-H650; first compound 2.53 µM): 0.911 | relative viability (NCI-H650; first compound 8 µM): 0.739 | relative viability (NCI-H322M; first compound 0.253 µM): 0.511 | relative viability (NCI-H322M; first compound 0.8 µM): 0.596 | relative viability (NCI-H322M; first compound 2.53 µM): 0.546 | relative viability (NCI-H322M; first compound 8 µM): 0.49 | relative viability (LOU-NH91; first compound 0.253 µM): 0.534 | relative viability (LOU-NH91; first compound 0.8 µM): 0.451 | relative viability (LOU-NH91; first compound 2.53 µM): 0.445 | relative viability (LOU-NH91; first compound 8 µM): 0.502 | relative viability (HCC-15; first compound 0.253 µM): 0.744 | relative viability (HCC-15; first compound 2.53 µM): 0.768 | relative viability (HCC-15; first compound 8 µM): 0.668 | relative viability (LXF-289; first compound 0.253 µM): 0.835 | relative viability (LXF-289; first compound 0.8 µM): 0.827 | relative viability (LXF-289; first compound 2.53 µM): 0.864 | relative viability (LXF-289; first compound 8 µM): 0.845 | relative viability (HCC-366; first compound 0.253 µM): 0.131 | relative viability (HCC-366; first compound 0.8 µM): 0.108 | relative viability (HCC-366; first compound 2.53 µM): 0.172 | relative viability (HCC-366; first compound 8 µM): 0.157 | relative viability (LC-2-ad; first compound 0.253 µM): 0.434 | relative viability (LC-2-ad; first compound 0.8 µM): 0.487 | relative viability (LC-2-ad; first compound 2.53 µM): 0.467 | relative viability (LC-2-ad; first compound 8 µM): 0.538 | relative viability (NCI-H2347; first compound 0.253 µM): 0.396 | relative viability (NCI-H2347; first compound 0.8 µM): 0.634 | relative viability (NCI-H2347; first compound 2.53 µM): 0.602 | relative viability (NCI-H2347; first compound 8 µM): 0.49 | relative viability (NCI-H838; first compound 0.253 µM): 0.505 | relative viability (NCI-H838; first compound 0.8 µM): 0.318 | relative viability (NCI-H838; first compound 2.53 µM): 0.518 | relative viability (NCI-H838; first compound 8 µM): 0.387 | relative viability (NCI-H2085; first compound 0.253 µM): 0.451 | relative viability (NCI-H2085; first compound 0.8 µM): 0.409 | relative viability (NCI-H2085; first compound 2.53 µM): 0.428 | relative viability (NCI-H2085; first compound 8 µM): 0.371 | relative viability (UMC-11; first compound 0.253 µM): 0.893 | relative viability (UMC-11; first compound 0.8 µM): 0.512 | relative viability (UMC-11; first compound 2.53 µM): 0.819 | relative viability (UMC-11; first compound 8 µM): 0.627 | relative viability (NCI-H1651; first compound 0.253 µM): 0.674 | relative viability (NCI-H1651; first compound 0.8 µM): 0.574 | relative viability (NCI-H1651; first compound 2.53 µM): 0.735 | relative viability (NCI-H1651; first compound 8 µM): 0.691 | relative viability (NCI-H1395; first compound 0.253 µM): 0.682 | relative viability (NCI-H1395; first compound 2.53 µM): 0.647 | relative viability (NCI-H1395; first compound 8 µM): 0.569
